# Experimental data: patent publication US11491460B2, “Porous cyclodextrin polymeric materials and methods of making and using same” (Cornell University, priority 2015, dated 2022)
# Where a name gives a salt, the structure may show the parent alone.
# Columns and labels:
# [1] = Micropollutant adsorption kinetics experiments on P-CDP; conditions: P-CDP 10 mg/L, MP 1 μg/L
# [2] = Micropollutant adsorption kinetics experiments on CCAC; conditions: CCAC 10 mg/L, MP 1 μg/L
# [3] = Batch adsorption kinetic studies of organic pollutants on P-CDP; conditions: estimated from the equilibrium efficiency value from the batch kinetic studies
# fish populations = conditions: concentrations as low as; cited from earlier work
# [4] = cited from earlier work; for Cs, solubility in water: experimental values
# [5] = Langmuir parameters of pollutant adsorption on P-CDP (Table 6); assay type: binding
# From the text: H. Thermodynamic studies of adsorption.
# K (mol^−1) is the equilibrium constant.
# [6] = 23° C., estimated at t=30 minutes
SMILES,removal by P-CDP (in words) [1],removal by CCAC (in words) [2],also measured
CC(N)Cc1ccccc1 (stereo not shown) [amphetamine],removed well,not effectively removed,–
COc1cccc(C2(O)CCCCC2CN(C)C)c1 (stereo not shown) [tramadol],removed well,not effectively removed,–
"Oc1ccc2ccccc2c1 [2-NO, 2-naphthol]",–,–,"K, equilibrium constant [3]: ~30,000^c Mol^−1"
COc1ccc2c3c1O[C@H]1[C@@H](O)C=C[C@H]4[C@@H](C2)N(C)CC[C@@]341 [codeine],removed well,not effectively removed,–
"Oc1ccc(Cl)cc1Cl [DCP, 2,4-dichlorophenol]",–,–,"K, equilibrium constant [3]: ~17,000^c Mol^−1"
C#C[C@]1(O)CC[C@H]2[C@@H]3CCc4cc(O)ccc4[C@H]3CC[C@@]21C [ethinyl estradiol],–,–,"concentration that has caused the collapse of fish populations (fish populations): 5 pg/mL; pKa [4]: 10.4; Cs, solubility in water [4]: 2 µg/mL"
CC(C)NCC(O)COc1ccc(CC(N)=O)cc1 (stereo not shown) [atenolol],removed well,not effectively removed,–
COc1ccc(C(CN(C)C)C2(O)CCCCC2)cc1 (stereo not shown) [venlafaxine],removed well,not effectively removed,–
CC(C)(C)NCC(O)c1ccc(O)c(CO)c1 (stereo not shown) [albuterol],removed well,not effectively removed,–
CC(C)NCC(O)COc1cccc2ccccc12 (stereo not shown) [propranolol hydrochloride],–,–,"K, equilibrium constant [3]: ~72,000^c Mol^−1"
COc1ccc2c3c1O[C@H]1C(=O)CC[C@H]4[C@@H](C2)N(C)CC[C@]314 [hydrocodone],removed well,not effectively removed,–
CCc1cccc(C)c1N(C(=O)CCl)C(C)COC (stereo not shown) [metolachlor],–,–,"K, equilibrium constant [3]: ~35,000^c Mol^−1"
CC(C)NCC(O)COc1cccc2ccccc12 (stereo not shown) [propranolol],–,–,"Cs, solubility in water [4]: 50 µg/mL"
"O=C(O)COc1ccc(Cl)cc1Cl [2,4-D]",hardly removed,removed fairly well,"kobs [1, 6]: 72.9 g/mg/min; kobs [2, 6]: 11.0 g/mg/min"
"CC(C)(c1ccc(O)cc1)c1ccc(O)cc1 [BPA, Bisphenol A]",–,–,"BPA/β-CD molar ratio at qmax,e [5]: 0.9; K, equilibrium constant ([5]; Langmuir): 56,500 Mol^−1; qmax,e, maximum adsorption capacity of pollutant on 1 g P-CDP at equilibrium ([5]; Langmuir): 88.5 mg/g"
CC(C)NCC(O)COc1ccc(CC(=O)O)cc1 (stereo not shown) [atenolol acid],removed well,not effectively removed,–
"O=S(=O)(c1ccc(O)cc1)c1ccc(O)cc1 [BPS, bisphenol S]",–,–,"K, equilibrium constant [3]: ~17,000^c Mol^−1"
CN1CC[C@]23c4c5ccc(O)c4O[C@H]2[C@@H](O)C=C[C@H]3[C@H]1C5 [morphine],removed well,not effectively removed,–
